Results from US9920295B2, “Bioreactor for isolation of rare cells and methods of use” (The Trustees of the University of Pennsylvania, priority 2012, dated 2018).

What was measured:
[1] = tested on: NMM-IIA pS1943; assay: pS1943 of NMM-IIA by phospho-specific flow cytometry; type: cell-based, human; conditions: under cytokine stimulation (SCF and Tpo)
Procedure: Cells were fixed with 4% paraformaldehyde in PBS for 10 min, washed with PBS and resuspended in 0.1% saponin in HBSS (staining medium). The samples were then stained with antibodies against cytoplasmic antigens, including NMM-IIA (Sigma), NMM-IIB, phospho-NMM-IIA and caspase-3 (all from Cell Signaling Technology) for 30 min at room temperature. In some cases, cells were concurrently stained with PE anti-CD34 or anti-human CD38 for subpopulation analysis. Cells were then washed and stained with anti-rabbit or mouse secondary antibodies conjugated with Alexa 647 (Invitrogen) for 30 min, followed by analysis on FACSCalibur.

[2] = tested on: CD34+-derived cells (HSC, MPP, CPP); assay: HSC/P subpopulation analysis by flow cytometry; type: cell-based, human
Procedure: Freshly purified bone marrow-derived human CD34^+ cells were obtained from either the Penn Xenograft Core Facility or AllCells (Emeryville, Calif.). Cells from at least 20 different donors were used in this study. Purity of the samples (>98%) was confirmed by flow cytometry with monoclonal antibody against human CD34. All experiments were performed in HSC expansion media (StemLine, Sigma) supplemented with 1× antibiotics, 20% BIT 9500 Serum Substitute (StemCell Technologies), 2 mM […] (Gibco) and the following human recombinant cytokines: SCF (100 ng/ml) and Tpo (100 ng/ml). In some occasions, the media was also supplemented by G-CSF (100 ng/ml), epidermal growth factor (EGF, 100 ng/ml), transforming growth factor beta 1 (TGF-beta1, 100 ng/ml), erythropoietin (EPO, 1 U/ml) and interleukin-3 (IL-3, 10 ng/ml). All cytokines were purchased from R&D Systems. After cells were cultured for 4 days, they were treated with different doses of cellular contractility inhibitors, including (±)-Blebbistatin (Bleb) (EMD Biosciences) and/or CH-223191 (Sigma) for indicated durations of up to 3 days. Cells were cultured at 37° C. in 5% CO2.
Surface marker analysis for HSC/Ps was done on either a LSR II flow cytometer or FACSCalibur (Becton Dickinson). […] Cells isolated from the bone marrow stained for 1 hr with APC anti-mouse CD47 (miap301, AbD Serotec), FITC anti-human CD47 (BD Biosciences), and PE anti-human CD11b, PE anti-human CD19 (both from BD Biosciences), or PE anti-human Glycophorin A (Invitrogen). Plts and RBCs were analyzed by staining with PE anti-mouse CD41 (eBioscience) and FITC anti-human CD41 (eBioscience) for 20 min, followed by analysis on FACSCalibur on log forward and side scatter scales.

[3] = molecular target: T1, αIIbβ3 (Homo sapiens, UniProt P05106+P08514); assay: Platelet activation assay, PAC-1 binding; type: cell-based; conditions: thrombin 1 U/mL
T1 construct: endogenous in cells; host or cells: platelet-like fragments from megakaryocytes cultured from human bone-marrow CD34+ cells
Procedure: For platelet-activation assays, platelet-sided fraction isolated from either MK culture or NSG blood was resuspended in Tyrode's buffer supplemented with Mg^2+ and Ca^2+, and incubated with indicated agonists for 15 min at 37° C., followed by staining with FITC-conjugated anti-human P-selectin or PAC-1 antibody (BD Bioscience), APC-conjugated anti-human CD41, and in the case of xenograft samples, PE-conjugated anti-mouse CD41 for 15 min at room temperature, followed by fixation with 1.5% paraformaldehyde. Antibody-stained samples were then analyzed by flow cytometry. Platelet number was evaluated by mixing each sample with a defined number (˜10,000 beads per sample) of APC-conjugated beads (BD Bioscience). The number of platelets per sample was evaluated by: number of CD41^+ events/number of APC-bead events multiplied by total known number of APC-bead added per sample.

[4] = tested on: BM CD34+-derived cells; assay: Micropipette aspiration of CD34+-derived cells; type: cell-based, human
Procedure: Cells from BMCD34^+, cultured in SCF and Tpo between 3 and 8 days, were treated with 20 μM blebbistatin for 30 min to 1 h, followed by micropipette analysis. Capillary tubes of 1.0-mm inner diameter (World Precision Instruments) were pulled into micropipettes using a Flaming-Brown Micropipette Puller (Sutter Instrument) and cut further using a deFonbrune-type microforge (Vibratome). The average micropipette diameter was around 3 μm. Micropipettes were attached to a dual-stage water manometer with reservoirs of adjustable height. Suction was applied by a syringe, and the corresponding pressure was measured by pressure transducer (Validyne), calibrated by a mercury U-tube manometer. Pressures for different experiments ranged from 0.5 to 20 kPa. In some cases, cells were labeled with a very low dose (10 nM) of fluorescent BODIPY-Taxol (Invitrogen) for 1 h at 37° C. to visualize the initial stage of microtubule polymerization during micropipette aspiration.

[5] = tested on: human-CD41+ platelets in NSG mice; assay: In vivo human platelet generation after intratibial transplantation into NSG mice; set-up: species or system mouse
Procedure: Eight- to 10-wk-old nonobese diabetic (NOD)/SCID/IL-2Rγ−/− (NSG) mice were obtained and maintained in-house at the Penn Xenograft Core Facility. Before transplantation (˜24 h), mice received a sublethal dose of 320 cGy total body irradiation. Cultured human CD34^+-derived cells (0.5−3×10^5 uncultured BM CD34^+ equivalent) with or without drug treatment was suspended in 20 μL PBS and injected directly into the tibia. Peripheral blood (PB) was then obtained from the transplanted mice via retroorbital bleeding and human platelet quantification was done at indicated times. To calculate human platelet in NSG circulation, the total platelet concentration count was done by Hemavet (Drew Scientific), and 2 μL of PB per staining sample was washed in the presence of PGE1 inhibitor (Sigma) and resuspended in PBS. Cells were incubated with mouse Fc-blocker (BD Biosciences) for 5 min, followed by addition of mouse anti-human CD41-FITC and rat anti-mouse CD41-PE antibodies (eBioscience). After 30 min incubation at room temperature, cells were fixed by addition of 0.5% paraformaldehyde and analyzed by flow cytometry within 2 h. Platelets were gated on based on forward and side scatters, and at least 50,000 events were acquired. Human platelet concentration was obtained by multiplying the total platelet count by the percentage of human CD41-FITC of the total CD41^+ platelets (mouse plus human). Microscopic determination and isotype control with mixing known number of human platelets indicate the threshold detection limit of 0.001%. The total human platelet number in each transplanted NSG mouse was estimated by assuming that the average total mouse blood is ˜1.5 mL (Riches et al., 1973, J Physiol, 228:279-284). All animal experiments were performed in accordance with institutional guidelines approved by the ethical committee from the University of Pennsylvania.

T1 sequence (P08514 32-887 limits assumed): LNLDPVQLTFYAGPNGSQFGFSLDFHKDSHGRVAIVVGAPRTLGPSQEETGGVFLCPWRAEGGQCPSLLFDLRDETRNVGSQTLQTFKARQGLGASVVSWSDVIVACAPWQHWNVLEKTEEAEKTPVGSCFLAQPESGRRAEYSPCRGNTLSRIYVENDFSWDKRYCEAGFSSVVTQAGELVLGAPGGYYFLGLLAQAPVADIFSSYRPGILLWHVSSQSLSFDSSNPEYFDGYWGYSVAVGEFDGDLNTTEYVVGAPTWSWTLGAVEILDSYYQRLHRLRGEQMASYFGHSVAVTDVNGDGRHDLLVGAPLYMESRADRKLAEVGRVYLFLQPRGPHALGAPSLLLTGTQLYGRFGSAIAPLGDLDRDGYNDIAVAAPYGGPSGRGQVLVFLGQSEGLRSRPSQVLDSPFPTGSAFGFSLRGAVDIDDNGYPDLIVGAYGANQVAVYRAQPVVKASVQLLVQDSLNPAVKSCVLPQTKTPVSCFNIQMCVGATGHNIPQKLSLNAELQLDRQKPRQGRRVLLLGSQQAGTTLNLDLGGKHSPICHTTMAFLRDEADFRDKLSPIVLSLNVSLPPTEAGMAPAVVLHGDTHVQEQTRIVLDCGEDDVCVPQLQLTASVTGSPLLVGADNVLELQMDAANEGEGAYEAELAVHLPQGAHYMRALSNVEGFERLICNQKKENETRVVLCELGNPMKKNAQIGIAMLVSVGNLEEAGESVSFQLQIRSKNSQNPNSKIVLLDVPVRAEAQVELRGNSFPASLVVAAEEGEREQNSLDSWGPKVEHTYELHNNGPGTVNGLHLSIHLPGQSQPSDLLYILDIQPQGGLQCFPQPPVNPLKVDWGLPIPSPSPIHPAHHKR
T1 sequence (P08514 891-1039 partner limits assumed): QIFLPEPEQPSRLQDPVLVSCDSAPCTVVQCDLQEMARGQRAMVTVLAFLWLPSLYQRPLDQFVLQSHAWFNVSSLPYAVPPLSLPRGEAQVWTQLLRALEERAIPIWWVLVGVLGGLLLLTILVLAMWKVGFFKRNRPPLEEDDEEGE
T1 sequence (P05106 27-788): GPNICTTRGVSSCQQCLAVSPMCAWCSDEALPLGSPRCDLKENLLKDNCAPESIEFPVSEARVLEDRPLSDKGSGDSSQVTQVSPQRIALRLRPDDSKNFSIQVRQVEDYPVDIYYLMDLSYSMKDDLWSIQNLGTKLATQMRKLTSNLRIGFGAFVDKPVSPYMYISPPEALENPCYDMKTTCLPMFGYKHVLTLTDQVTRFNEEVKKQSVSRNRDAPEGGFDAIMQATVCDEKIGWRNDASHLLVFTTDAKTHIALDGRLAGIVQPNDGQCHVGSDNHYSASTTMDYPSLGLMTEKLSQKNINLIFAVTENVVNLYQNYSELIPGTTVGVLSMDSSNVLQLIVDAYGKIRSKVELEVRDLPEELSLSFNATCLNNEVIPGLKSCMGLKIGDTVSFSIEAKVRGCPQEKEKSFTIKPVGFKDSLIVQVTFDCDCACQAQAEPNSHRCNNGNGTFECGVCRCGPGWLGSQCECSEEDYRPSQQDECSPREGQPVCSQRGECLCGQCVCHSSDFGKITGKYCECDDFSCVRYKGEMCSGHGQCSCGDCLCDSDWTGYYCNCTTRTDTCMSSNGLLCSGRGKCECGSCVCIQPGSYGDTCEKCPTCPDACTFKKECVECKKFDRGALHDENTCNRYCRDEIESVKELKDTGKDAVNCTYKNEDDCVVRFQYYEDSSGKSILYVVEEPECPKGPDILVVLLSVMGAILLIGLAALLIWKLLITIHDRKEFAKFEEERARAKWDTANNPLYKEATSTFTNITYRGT

IC50 ([2]; 2N cells, n≥4 donors, read-out: CPP and MPP number IC50): ~10.5 µM
PAC-1 binding of platelets derived from drug-exposed MKs [3]: normal PAC-1 binding
Structure (SMILES): Cc1ccc2c(c1)C(=O)C1(O)CCN(c3ccccc3)C1=N2 (racemic) [blebbistatin, (±)-blebbistatin]
effect on pS1943 level [1]: inhibits the reduction of pS1943
change in primitive HSC cell number [2]: < 50%
enrichment for LT-HSCs ([2]; 20 μM, 2N cells): 15.6±4.1 fold
CPP depletion ([2]; 3-day treatment): 31 fold
CPP depletion, range ([2]; 3-day treatment): 15-48 fold
HSC enrichment, average ([2]; 3-day treatment): 16 fold
HSC enrichment, range ([2]; 3-day treatment): 5-24 fold
MPP depletion ([2]; 3-day treatment): 1.8 fold
MPP depletion, range ([2]; 3-day treatment): 1.3-2.3 fold
HSC number, mean ([2]; normalized to initial cell input): 646±77
HSC-to-MPP ratio vs untreated cells ([2]; on plastic): ~4 fold
Ki ([2]; read-out: inhibition constant Ki, MPPs and CPPs): ~10.5 µM
median fragmentation threshold (effective membrane tension) ([4]; 20 μM): ~1 mN/m
compliance, median slope of aspiration length vs tension ([4]; 20 μM, unfragmented cells): 3.79±0.84 (mN/m)^−1
increase in compliance ([4]; after 30 min): approximately four
treated cells that fragment ([4]; after 30 min): 40%
human plts per transplanted CD41+ cell vs untreated ([5]; Phase-I and Phase-II of circulation): about 4 fold
plt half-life ([5]; Phase-II decay, regardless of drug treatment): ~37 h
in vivo human platelets per transplanted CD41+ cell vs untreated ([5]; cells treated ex vivo 3 d, day 3 posttransplant): about fourfold
